Measurements from publication PMC9090415, “Discovery of small molecule inhibitors of Plasmodium falciparum apicoplast DNA polymerase” (Journal of Enzyme Inhibition and Medicinal Chemistry, 2022).

What was measured:
[1] = target: Babesia bovis apicoplast DNA polymerase (Bb-apPOL); test: In vitro DNA polymerase inhibition assay, Bb-apPOL; type: biochemical; conditions: Table 2
Procedure: (§1) Codon-optimized, exonuclease-deficient Pf-apPOL was overexpressed in E. coli BL21 (DE3) and purified as described. The protein was dialysed against two, 1-liter changes of 20 mM Tris-HCl (pH 8.0), 400 mM NaCl, and 20% glycerol. Plasmodium bergei and Babesia bovis apPOLs (Pb-apPOL and Bb-apPOL, respectively) were codon-optimized, expressed, and purified as for Pf-apPOL[15]. Bacteriophage T4 DNA polymerase was purified as described. The DNA oligonucleotides used to make the high-throughput substrate were obtained from Integrated DNA Technologies. Deoxynucleotides were purchased from Strategene. All other materials came from Fisher Scientific.
We tested the ability of the 102 compounds to kill P. falciparum parasites cultured in human red blood cells. Due to the number of compounds, we used a single inhibitor concentration of 20 µM and performed experiments in triplicate. […] These compounds were then tested in a dose-response format against chloroquine resistant P. falciparum parasites (Dd2) and the resulting data were fit to a sigmoidal growth inhibition curve to determine EC50 values (Figure 5, Table 2). […] Finally, to determine if the compounds were killing the parasites solely via apicoplast disruption, the dose-response curves were also performed with 1 mM isopentylpyrophosphate (IPP) in the growth media (Table 2). […] Very little is known regarding mitochondrial DNA replication in P. falciparum; however, signal sequence identification algorithms have predicted that the other bacterial A-family DNA polymerase residing in P. falciparum is targeted to the mitochondria (PF3D7_0625300)[29]. […] We are currently in the process of cloning and expressing this putative mitochondrial DNA polymerase to determine the effect of these compounds on its activity.

[2] = target: T1, P. berghei apicoplast DNA polymerase (Pb-apPOL) (Plasmodium berghei, UniProt A0A509ALK1); test: In vitro DNA polymerase inhibition assay, Pb-apPOL; type: biochemical; conditions: Table 2
T1 sequence (A0A509ALK1 1182-1809): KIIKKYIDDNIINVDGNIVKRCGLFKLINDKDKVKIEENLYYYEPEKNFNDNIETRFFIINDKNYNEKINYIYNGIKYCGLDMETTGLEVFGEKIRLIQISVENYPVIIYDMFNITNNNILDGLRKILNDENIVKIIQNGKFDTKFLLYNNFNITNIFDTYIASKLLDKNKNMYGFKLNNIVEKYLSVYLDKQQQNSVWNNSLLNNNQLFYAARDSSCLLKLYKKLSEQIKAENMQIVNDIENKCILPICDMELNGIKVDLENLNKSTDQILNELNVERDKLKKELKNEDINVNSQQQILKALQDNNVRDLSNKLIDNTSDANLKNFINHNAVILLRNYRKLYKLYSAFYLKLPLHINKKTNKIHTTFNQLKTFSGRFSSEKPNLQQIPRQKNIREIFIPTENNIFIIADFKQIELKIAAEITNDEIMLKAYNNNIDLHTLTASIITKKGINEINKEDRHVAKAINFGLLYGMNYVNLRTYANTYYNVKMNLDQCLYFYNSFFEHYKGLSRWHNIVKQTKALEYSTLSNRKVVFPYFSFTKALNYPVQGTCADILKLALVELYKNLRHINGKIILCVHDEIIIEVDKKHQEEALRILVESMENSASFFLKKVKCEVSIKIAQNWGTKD
Procedure: as §1
The HT assay employs a molecular beacon, a stem-loop DNA template with a Cy3 dye and the Black Hole Quencher on the 3′ and 5′ ends of the DNA, respectively. Pf-apPOL concentration is based on a calculated absorptivity of ε280 = 56750 M^−1 cm^−1. Reactions were carried out at 25 °C, using Corning 3575 […] (well-volume, 20 µL). Assays testing for compound inhibition composed of reaction buffer (pH 7.9 in 50 mM potassium acetate, 20 mM Tris-acetate and 10 mM magnesium acetate), Pf-apPOL (20 nM), DNA substrate (20 nM), dNTPs (6 µM), and compound (10 µM in DMSO). The DNA and nucleotide substrates (dNTPs) were at concentrations of 20 nM and 6 µM, respectively, in the assay. Pf-apPOL was incubated in the reaction buffer with dNTPs and the compound of interest (10 µM, in the assay) at 25 °C for 10 min. The DNA substrate was then added and the reaction was allowed to proceed for 90 min at 25 °C.
In the above, Min is the average of fluorescence emission of the negative controls (substrate only), Max the average fluorescence emission from the positive controls (enzyme + substrate), and Test the emission from the assays in the presence of compounds (enzyme + compound + substrates). Dose-response confirmation assays were performed under similar conditions as the primary screen, but monitoring fluorescence at 10, 90, and 180 min. Tested concentrations of compounds were 2.5, 10, 20, 40, and 80 µM. The IC50 of each compound was determined using Equation (2): (2) […] Vmax/(1+ (I/IC50)^n)
We tested the ability of the 102 compounds to kill P. falciparum parasites cultured in human red blood cells. Due to the number of compounds, we used a single inhibitor concentration of 20 µM and performed experiments in triplicate. These single-dose assays identified 9 compounds that inhibited parasite growth by more than 50%. These compounds were then tested in a dose-response format against chloroquine resistant P. falciparum parasites (Dd2) and the resulting data were fit to a sigmoidal growth inhibition curve to determine EC50 values (Figure 5, Table 2). […] Inhibition of Pb-apPOL is a desired feature because it is likely that future in vivo studies will be performed in the mouse model for Malaria. […] The in vitro polymerase assays identified 5 compounds that were potent inhibitors of all three apicoplast polymerases and a single compound that inhibited Pf-apPOL and Bb-apPOL but not Pb-apPOL (Table 2). Finally, to determine if the compounds were killing the parasites solely via apicoplast disruption, the dose-response curves were also performed with 1 mM isopentylpyrophosphate (IPP) in the growth media (Table 2). […] At this time, it is unclear what the non-apicoplast target(s) may be. One intriguing possibility is that these compounds may be targeting both the apicoplast and the mitochondrial DNA polymerases. […]

OC(C#Cc1ccccc1)c1ccco1 (centres unmarked) [Molecule 95] gave an IC50 [1] of 2.5 ± 0.2 µM and an IC50 [2] of 8.6 ± 0.7 µM.

Molecule COc1ccc(CNC(=O)Cn2nc3c(c2NC(=O)Cc2cccs2)CSC3)cc1 [Molecule 55] has an IC50 [1] of 1.5 ± 1 µM and an IC50 [2] of 51.9 ± 3.5 µM.

For CCOc1nc2cccc(C(=O)OC(C)OC(=O)OC3CCCCC3)c2n1Cc1ccc(-c2ccccc2-c2nnn[nH]2)cc1 (centres unmarked) [Molecule 94], the IC50 [1] was 30 ± 3 µM and the IC50 [2] was 13.9 ± 1.6 µM.

Work on O=C(O)c1ccc(-c2nc3cc(-c4ccc5nc(-c6ccc(C(=O)O)cc6)[nH]c5c4)ccc3[nH]2)cc1 [Molecule 1] yielded an IC50 [1] of 3.7 ± 0.2 µM and an IC50 [2] of 7.1 ± 0.6 µM.
